According to ChEMBL document CHEMBL3885861, “Open TG-GATES”:

Organism: Rattus norvegicus
Assay: Open TG-GATES - Regimen: Daily Repeat
Format: toxicity, organism-based, Sprague-Dawley
Parameters: regimen Daily Repeat, gender Male, age 6 weeks
Details: in vivo, po, 50 mg/kg, route gavage, dose level Middle; for APTT / Bas / Eos / Fbg / Hb / Ht / Lym / MCH / MCHC / MCV / Mono / Neu / PT / Plat / RBC / Ret / WBC: tissue Blood; for KIDNEY_L / KIDNEY_R / KIDNEY_TOTAL: tissue Kidney; for LIVER: tissue Liver; for A/G / ALP / ALT / AST / BUN / CRE / Ca / Cl / DBIL / GLC / IP / K / LDH / Na / PL / RALB / TBIL / TC / TG / TP / gamma-GTP: tissue Plasma

## O=c1ccc2ccccc2o1 [COUMARIN]
72 h, time 3 day
  TERMINAL_BW: 194.4 g
  APTT: 14.9 s
  Bas: 0%
  Eos: 1.2%
  Fbg: 201.2 mg/dL
  Hb: 13.2 g/dL
  Ht: 40.2%
  Lym: 71.6%
  MCH: 21.3 pg
  MCHC: 33%
  MCV: 64.5 fL
  Mono: 6.2%
  Neu: 21%
  PT: 11.4 s
  Plat: 114.2 x10_4/uL
  RBC: 623.4 x10_4/ul
  Ret: 7.4%
  WBC: 101.6 x10_2/uL
  KIDNEY_L: 0.9 g
  KIDNEY_R: 0.9 g
  KIDNEY_TOTAL: 1.8 g
  LIVER: 10 g
  A/G: 1.9
  ALP: 1143 IU/L
  ALT: 43.8 IU/L
  AST: 65.4 IU/L
  BUN: 14.2 mg/dL
  CRE: 0.5 mg/dL
  Ca: 10.9 mg/dL
  Cl: 106 meq/L
  DBIL: 0.03 mg/dL
  GLC: 182.4 mg/dL
  IP: 7.6 mg/dL
  K: 5.2 meq/L
  LDH: 94 IU/L
  Na: 139.4 meq/L
  PL: 150.6 mg/dL
  RALB: 3.7 g/dL
  TBIL: 0.3 mg/dL
  TC: 95.4 mg/dL
  TG: 37 mg/dL
  TP: 5.7 g/dL
  gamma-GTP: 1.2 IU/L
[…], time 7 day
  TERMINAL_BW: 221.4 g
  APTT: 16.9 s
  Bas: 0%
  Eos: 1%
  Fbg: 218 mg/dL
  Hb: 13.4 g/dL
  Ht: 39.9%
  Lym: 82.8%
  MCH: 21.3 pg
  MCHC: 33.4%
  MCV: 63.9 fL
  Mono: 3.2%
  Neu: 13.4%
  PT: 11.3 s
  Plat: 120.8 x10_4/uL
  RBC: 625 x10_4/ul
  Ret: 6.2%
  WBC: 135.8 x10_2/uL
  KIDNEY_L: 1 g
  KIDNEY_R: 1 g
  KIDNEY_TOTAL: 2.1 g
  LIVER: 11.3 g
  A/G: 2
  ALP: 996 IU/L
  ALT: 41 IU/L
  AST: 54.2 IU/L
  BUN: 15 mg/dL
  CRE: 0.6 mg/dL
  Ca: 11 mg/dL
  Cl: 104.8 meq/L
  DBIL: 0.04 mg/dL
  GLC: 193.6 mg/dL
  IP: 7.7 mg/dL
  K: 5 meq/L
  LDH: 98.8 IU/L
  Na: 139 meq/L
  PL: 164.6 mg/dL
  RALB: 3.9 g/dL
  TBIL: 0.3 mg/dL
  TC: 99.6 mg/dL
  TG: 36 mg/dL
  TP: 5.9 g/dL
  gamma-GTP: 1 IU/L
[…], time 14 day
  TERMINAL_BW: 270.1 g
  APTT: 17.5 s
  Bas: 0%
  Eos: 0.6%
  Fbg: 249 mg/dL
  Hb: 13.8 g/dL
  Ht: 41.7%
  Lym: 87%
  MCH: 20.1 pg
  MCHC: 33.2%
  MCV: 60.5 fL
  Mono: 3.8%
  Neu: 8.8%
  PT: 11.3 s
  Plat: 120.6 x10_4/uL
  RBC: 689.8 x10_4/ul
  Ret: 4.8%
  WBC: 163.9 x10_2/uL
  KIDNEY_L: 1.2 g
  KIDNEY_R: 1.2 g
  KIDNEY_TOTAL: 2.3 g
  LIVER: 14.8 g
  A/G: 2
  ALP: 739.4 IU/L
  ALT: 34 IU/L
  AST: 53.8 IU/L
  BUN: 19.6 mg/dL
  CRE: 0.5 mg/dL
  Ca: 11.1 mg/dL
  Cl: 105.4 meq/L
  DBIL: 0.068 mg/dL
  GLC: 194 mg/dL
  IP: 6.8 mg/dL
  K: 4.8 meq/L
  LDH: 81.2 IU/L
  Na: 138.6 meq/L
  PL: 212.4 mg/dL
  RALB: 4.2 g/dL
  TBIL: 0.3 mg/dL
  TC: 115.8 mg/dL
  TG: 88.4 mg/dL
  TP: 6.4 g/dL
  gamma-GTP: 1 IU/L
[…], time 28 day
  TERMINAL_BW: 361.7 g
  APTT: 19 s
  Bas: 0%
  Eos: 1%
  Fbg: 239.2 mg/dL
  Hb: 14.2 g/dL
  Ht: 42.4%
  Lym: 81%
  MCH: 19.1 pg
  MCHC: 33.6%
  MCV: 56.8 fL
  Mono: 4.2%
  Neu: 14.2%
  PT: 11.6 s
  Plat: 109.4 x10_4/uL
  RBC: 745.8 x10_4/ul
  Ret: 3.1%
  WBC: 125.8 x10_2/uL
  KIDNEY_L: 1.4 g
  KIDNEY_R: 1.4 g
  KIDNEY_TOTAL: 2.7 g
  LIVER: 19 g
  A/G: 1.7
  ALP: 603 IU/L
  ALT: 41.8 IU/L
  AST: 52 IU/L
  BUN: 21 mg/dL
  CRE: 0.6 mg/dL
  Ca: 11 mg/dL
  Cl: 105.2 meq/L
  DBIL: 0.022 mg/dL
  GLC: 183.4 mg/dL
  IP: 6.4 mg/dL
  K: 4.4 meq/L
  LDH: 66.2 IU/L
  Na: 139.4 meq/L
  PL: 195.6 mg/dL
  RALB: 4.3 g/dL
  TBIL: 0.3 mg/dL
  TC: 99.2 mg/dL
  TG: 104 mg/dL
  TP: 6.9 g/dL
  gamma-GTP: 1.6 IU/L
